Experiments:
[1] = biological target: T1, PRMT5/MEP50 complex (Homo sapiens, UniProt O14744); experiment: PRMT5:MEP50 HotSpot Assay (full-length histone H2A substrate, plus and minus MTA); assay type: biochemical; conditions: IC50 + 2 μM MTA, in the presence of 2 μM MTA
T1 construct: purchased Reaction Biology Corporation
Outline: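 Radiometric HotSpot format using recombinant full-length histone H2A as substrate, run with and without MTA. Reactions were stopped and spotted onto filter paper. Tritiated H2A was quantified by scintillation counting.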

[2] = system: HCT116 homozygous MTAP knockout cells; experiment: Proliferation assay (CellTiter-Glo, 10 days) in HCT116 homozygous MTAP knockout cells; assay type: cell-based; conditions: CellTiter-Glo after 10 days of treatment, read-out: Proliferation IC50 (nM) HCT116 MTAP_KO
Description: HCT116 cells were genetically engineered to knock out the function of both MTAP alleles using a CRISPR/Cas9 system and an sgRNA targeting the MTAP gene. Following Cas9/MTAP sgRNA transduction, clones were screened to confirm that each allele of the MTAP gene had been inactivated (i.e., homozygous MTAP knock out) creating an MTAP-deficient cell.
Control samples were analyzed in parallel.
Briefly, on Day 0, 250 HCT116 parental or HCT116 homozygous MTAP knockout cell were seeded in 96 well plates in McCoy's 5A supplemented with […] fetal bovine serum and pen/strep and the cells were incubated overnight at 37° C. plus 5% CO2.
The following day, cells were treated with DMSO vehicle control or a dose response of PRMT5 inhibitors and incubated at 37 C plus 5% CO2 for five days. On Day 6, the cells were trypsinized and split 1:10 into new 96-well plates with fresh medium containing the same concentration of PRMT5 inhibitor and incubated for an additional 5 days at 37° C. plus 5% CO^2.
On Day 11, the viability of the cells was measured using a CTG assay kit (CellTiter-Glo; Promega cat.no G7573) in accordance with the manufacturer's instructions. The IC50 values for each compound after 10 days of treatment were calculated using GraphPad PRISM software.

T1 sequence (O14744 2-637 limits assumed): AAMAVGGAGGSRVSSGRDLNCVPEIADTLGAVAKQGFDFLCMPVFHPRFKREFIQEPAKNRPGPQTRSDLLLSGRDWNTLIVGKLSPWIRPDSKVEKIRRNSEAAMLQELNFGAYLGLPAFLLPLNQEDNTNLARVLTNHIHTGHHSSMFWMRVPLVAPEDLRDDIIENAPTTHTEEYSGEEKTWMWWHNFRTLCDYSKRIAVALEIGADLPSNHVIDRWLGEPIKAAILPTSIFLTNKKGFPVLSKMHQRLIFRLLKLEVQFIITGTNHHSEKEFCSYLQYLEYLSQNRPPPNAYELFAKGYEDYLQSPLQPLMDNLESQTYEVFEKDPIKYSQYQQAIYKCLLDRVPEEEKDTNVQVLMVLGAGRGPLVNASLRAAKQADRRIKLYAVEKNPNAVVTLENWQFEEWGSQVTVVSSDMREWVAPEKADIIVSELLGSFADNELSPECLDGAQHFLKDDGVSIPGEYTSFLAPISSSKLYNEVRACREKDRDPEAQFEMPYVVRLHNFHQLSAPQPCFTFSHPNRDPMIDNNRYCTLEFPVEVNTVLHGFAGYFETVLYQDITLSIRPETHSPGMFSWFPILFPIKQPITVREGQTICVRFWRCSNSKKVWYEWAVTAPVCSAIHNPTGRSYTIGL
T1 sequence (Q9BQA1 2-342 partner limits assumed): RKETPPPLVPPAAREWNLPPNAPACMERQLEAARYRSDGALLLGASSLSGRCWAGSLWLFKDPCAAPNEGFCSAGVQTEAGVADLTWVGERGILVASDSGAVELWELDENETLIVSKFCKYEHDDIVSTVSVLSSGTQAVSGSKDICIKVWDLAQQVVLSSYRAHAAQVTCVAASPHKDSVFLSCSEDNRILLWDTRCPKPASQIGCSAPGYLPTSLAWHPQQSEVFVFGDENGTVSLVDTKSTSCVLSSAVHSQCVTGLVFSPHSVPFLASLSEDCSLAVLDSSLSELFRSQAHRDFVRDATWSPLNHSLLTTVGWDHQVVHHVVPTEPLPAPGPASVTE

| IC50 [1] [nM] | IC50 [2] [nM] | Compound |
| --- | --- | --- |
| 26.4 | 12 | Cn1ncc(-c2cc(Cl)c3c(=O)[nH]nc(CN)c3c2)c1-c1c(F)cc2ccccc2c1C#N (single isomer, unassigned) [Example 16-12, (M)-(4-(4-(aminomethyl)-8-chloro-1-oxo-1,2-dihydrophthalazin-6-yl)-1-methyl-1H-pyrazol-5-yl)-3-fluoro-1-naphthonitrile] |
| 173 | 1070 | Cc1cc(OC2CC2)c(C#N)c(-c2c(-c3ccc4c(=O)[nH]nc(CN)c4c3)cnn2C)c1F (single isomer, unassigned) [Example 16-19, (P)-2-[4-[4-(aminomethyl)-1-oxo-2H-phthalazin-6-yl]-2-methyl-pyrazol-3-yl]-6-(cyclopropoxy)-3-fluoro-4-methyl-benzonitrile] |
| 36 | 13 | Cc1cc(OC2CC2)c(C#N)c(-c2c(-c3ccc4c(=O)[nH]nc(CN)c4c3)cnn2C)c1F (single isomer, unassigned) [Example 16-20, (M)-2-[4-[4-(aminomethyl)-1-oxo-2H-phthalazin-6-yl]-2-methyl-pyrazol-3-yl]-6-(cyclopropoxy)-3-fluoro-4-methyl-benzonitrile] |
| 485 | 538 | Cn1ncc(-c2ccc3c(=O)[nH]nc(CN)c3c2)c1-c1c(C#N)c(OC2CC2)c2ccccc2c1Cl (single isomer, unassigned) [Example 16-23, (P)-3-[4-[4-(aminomethyl)-1-oxo-2H-phthalazin-6-yl]-2-methyl-pyrazol-3-yl]-4-chloro-1-(cyclopropoxy)naphthalene-2-carbonitrile] |
| 37.2 | 61 | Cn1ncc(-c2ccc3c(=O)[nH]nc(CN)c3c2)c1-c1c(C#N)c(OC2CC2)c2ccccc2c1Cl (single isomer, unassigned) [Example 16-24, (M)-3-[4-[4-(aminomethyl)-1-oxo-2H-phthalazin-6-yl]-2-methyl-pyrazol-3-yl]-4-chloro-1-(cyclopropoxy)naphthalene-2-carbonitrile] |
| 964 | 664 | Cc1cc(OC2CC2)c(C#N)c(-c2c(-c3cc(Cl)c4c(=O)[nH]nc(CN)c4c3)cnn2C)c1F (single isomer, unassigned) [Example 16-25, (P)-2-[4-[4-(aminomethyl)-8-chloro-1-oxo-2H-phthalazin-6-yl]-2-methyl-pyrazol-3-yl]-6-(cyclopropoxy)-3-fluoro-4-methyl-benzonitrile] |
| 8.43 | 17 | Cc1cc(OC2CC2)c(C#N)c(-c2c(-c3cc(Cl)c4c(=O)[nH]nc(CN)c4c3)cnn2C)c1F (single isomer, unassigned) [Example 16-26, (M)-2-[4-[4-(aminomethyl)-8-chloro-1-oxo-2H-phthalazin-6-yl]-2-methyl-pyrazol-3-yl]-6-(cyclopropoxy)-3-fluoro-4-methyl-benzonitrile] |
| 2230 | 321 | Cn1ncc(-c2cc(Cl)c3c(=O)[nH]nc(CN)c3c2)c1-c1c(F)c(Cl)cc(OC2CC2)c1C#N (single isomer, unassigned) [Example 16-27, (P)-2-[4-[4-(aminomethyl)-8-chloro-1-oxo-2H-phthalazin-6-yl]-2-methyl-pyrazol-3-yl]-4-chloro-6-(cyclopropoxy)-3-fluoro-benzonitrile] |
| 81 | 10 | Cn1ncc(-c2cc(Cl)c3c(=O)[nH]nc(CN)c3c2)c1-c1c(F)c(Cl)cc(OC2CC2)c1C#N (single isomer, unassigned) [Example 16-28, (M)-2-[4-[4-(aminomethyl)-8-chloro-1-oxo-2H-phthalazin-6-yl]-2-methyl-pyrazol-3-yl]-4-chloro-6-(cyclopropoxy)-3-fluoro-benzonitrile] |
| 111 | 292 | Cn1ncc(-c2ccc3c(=O)[nH]nc(CN)c3c2)c1-c1c(F)ccc(CC2CC2)c1C#N (single isomer, unassigned) [Example 16-29, (P)-2-(4-(4-(aminomethyl)-1-oxo-1,2-dihydrophthalazin-6-yl)-1-methyl-1H-pyrazol-5-yl)-6-(cyclopropylmethyl)-3-fluorobenzonitrile] |
| 36.4 | 17 | Cn1ncc(-c2ccc3c(=O)[nH]nc(CN)c3c2)c1-c1c(F)ccc(CC2CC2)c1C#N (single isomer, unassigned) [Example 16-30, (M)-2-(4-(4-(aminomethyl)-1-oxo-1,2-dihydrophthalazin-6-yl)-1-methyl-1H-pyrazol-5-yl)-6-(cyclopropylmethyl)-3-fluorobenzonitrile] |
| 19.3 | 16 | Cn1ncc(-c2ccc3c(=O)[nH]nc(CN)c3c2)c1-c1c(F)cc2ncc(Cl)cc2c1C#N (single isomer, unassigned) [Example 16-31, (M)-6-[4-[4-(aminomethyl)-1-oxo-2H-phthalazin-6-yl]-2-methyl-pyrazol-3-yl]-3-chloro-7-fluoro-quinoline-5-carbonitrile] |
| 195 | 458 | Cn1ncc(-c2ccc3c(=O)[nH]nc(CN)c3c2)c1-c1c(F)cc2ncc(Cl)cc2c1C#N (single isomer, unassigned) [Example 16-32, (P)-6-[4-[4-(aminomethyl)-1-oxo-2H-phthalazin-6-yl]-2-methyl-pyrazol-3-yl]-3-chloro-7-fluoro-quinoline-5-carbonitrile] |
| 366 | 517 | Cn1ncc(-c2ccc3c(=O)[nH]nc(CN)c3c2)c1-c1c(F)c(Cl)c2c(c1C#N)OCCC2 (single isomer, unassigned) [Example 16-39, (P)-7-(4-(4-(aminomethyl)-1-oxo-1,2-dihydrophthalazin-6-yl)-1-methyl-1H-pyrazol-5-yl)-5-chloro-6-fluorochroman-8-carbonitrile] |
| 60.1 | 12 | Cn1ncc(-c2ccc3c(=O)[nH]nc(CN)c3c2)c1-c1c(F)c(Cl)c2c(c1C#N)OCCC2 (single isomer, unassigned) [Example 16-40, (M)-7-(4-(4-(aminomethyl)-1-oxo-1,2-dihydrophthalazin-6-yl)-1-methyl-1H-pyrazol-5-yl)-5-chloro-6-fluorochroman-8-carbonitrile] |
| 166 | 80 | Cc1cc(-c2cnn(C)c2-c2c(F)cc3ncc(Cl)cc3c2C#N)cc2c(CN)n[nH]c(=O)c12 (single isomer, unassigned) [Example 16-49, (P)-6-[4-[4-(aminomethyl)-8-methyl-1-oxo-2H-phthalazin-6-yl]-2-methyl-pyrazol-3-yl]-3-chloro-7-fluoro-quinoline-5-carbonitrile] |
| 36.4 | 9 | Cc1cc(-c2cnn(C)c2-c2c(F)cc3ncc(Cl)cc3c2C#N)cc2c(CN)n[nH]c(=O)c12 (single isomer, unassigned) [Example 16-50, (M)-6-[4-[4-(aminomethyl)-8-methyl-1-oxo-2H-phthalazin-6-yl]-2-methyl-pyrazol-3-yl]-3-chloro-7-fluoro-quinoline-5-carbonitrile] |
| 157 | 752 | Cn1ncc(-c2ccc3c(=O)[nH]nc(CN)c3c2)c1-c1c(C#N)cc2ccccc2c1F (single isomer, unassigned) [Example 16-53, (P)-3-[4-[4-(aminomethyl)-1-oxo-2H-phthalazin-6-yl]-2-methyl-pyrazol-3-yl]-4-fluoro-naphthalene-2-carbonitrile] |
| 9.19 | 82 | Cn1ncc(-c2ccc3c(=O)[nH]nc(CN)c3c2)c1-c1c(C#N)cc2ccccc2c1F (single isomer, unassigned) [Example 16-54, (M)-3-[4-[4-(aminomethyl)-1-oxo-2H-phthalazin-6-yl]-2-methyl-pyrazol-3-yl]-4-fluoro-naphthalene-2-carbonitrile] |
| 253 | 339 | Cn1ncc(-c2cc(Cl)c3c(=O)[nH]nc(CN)c3c2)c1-c1c(F)c(Cl)c2ccccc2c1C#N (single isomer, unassigned) [Example 16-57, (P)-2-[4-[4-(aminomethyl)-8-chloro-1-oxo-2H-phthalazin-6-yl]-2-methyl-pyrazol-3-yl]-4-chloro-3-fluoro-naphthalene-1-carbonitrile] |
| 4.61 | 15 | Cn1ncc(-c2cc(Cl)c3c(=O)[nH]nc(CN)c3c2)c1-c1c(F)c(Cl)c2ccccc2c1C#N (single isomer, unassigned) [Example 16-58, (M)-2-[4-[4-(aminomethyl)-8-chloro-1-oxo-2H-phthalazin-6-yl]-2-methyl-pyrazol-3-yl]-4-chloro-3-fluoro-naphthalene-1-carbonitrile] |
| 318 | 215 | Cc1c(F)c(-c2c(-c3cc(Cl)c4c(=O)[nH]nc(CN)c4c3)cnn2C)c(C#N)c2ccccc12 (single isomer, unassigned) [Example 16-59, (P)-2-[4-[4-(aminomethyl)-8-chloro-1-oxo-2H-phthalazin-6-yl]-2-methyl-pyrazol-3-yl]-3-fluoro-4-methyl-naphthalene-1-carbonitrile] |
